Measurements as given in patent US12084430B2, “Tricyclic urea compounds as JAK2 V617F inhibitors” (Incyte Corporation, priority 2022, dated 2024).

Legend:
[1] = In vitro intrinsic clearance; assay type: in vitro ADME; details: human liver microsomes, 1 μM
Method: Example G. In Vitro Intrinsic Clearance Protocol
For in vitro metabolic stability experiments, test compounds were incubated with human liver microsomes at 37° C. The incubation mixture contained test compounds (1 μM), NADPH (2 mM), and human liver microsomes (0.5 mg protein/mL) in 100 mM phosphate buffer (pH 7.4). The mixture was pre-incubated for 2 min at 37° C. before the addition of NADPH. Reactions were commenced upon the addition of NADPH and quenched with ice-cold methanol at 0, 10, 20, and 30 min. Terminated incubation mixtures were analyzed using LC-MS/MS system. The analytical system consisted of a Shimadzu LC-30AD binary pump system and SIL-30AC autosampler (Shimadzu Scientific Instruments, Columbia, MD) coupled with a Sciex Triple Quad 6500+ mass spectrometer from Applied Biosystems (Foster City, CA). […] Mobile phase A consisted of 0.1% formic acid in water, and mobile phase B consisted of 0.1% formic acid in acetonitrile. The total LC-MS/MS runtime was 2.75 minutes with a flow rate of 0.75 mL/min. Peak area integrations and peak area ratio calculations were performed using Analyst software (version 1.6.3) from Applied Biosystems.
The in vitro intrinsic clearance, CLint, in vitro, was calculated from the t1/2 of test compound disappearance as CLint, in vitro=(0.693/t1/2)×(1/Cprotein), where Cprotein is the protein concentration during the incubation, and t1/2 was determined by the slope (k) of the log-linear regression analysis of the concentration versus time profiles; thus, t1/2=ln 2/k. The CLint, in vitro values were scaled to the in vivo values for human by using physiologically based scaling factors, hepatic microsomal protein concentrations (45 mg protein/g liver), and liver weights (21 g/kg body weight). The equation CLint=CLint, in vitro×(mg protein/g liver weight)×(g liver weight/kg body weight) was used. The in vivo hepatic clearance (CLH) was then calculated by using CLint and hepatic blood flow, Q (20 mL·min^−1·kg^−1 in humans) in the well-stirred liver model disregarding all binding from CLH=(Q×CLint)/(Q+CLint). The hepatic extraction ratio was calculated as CLH divided by Q.

[2] = test system: STAT5 (Tyr694) phosphorylation in SET-2 cells; assay: STAT5 (Tyr694) phosphorylation cell based assay; details: Homo sapiens, pSTAT5, 2 hours, read-out: SET2 IC50
Method: Example E. STAT5 (Tyr694) Phosphorylation Cell Based Assay
SET-2 cells was purchased from DSMZ (Germany). RPMI1640 medium, Fetal Bovine Serum and 384-white sold flat-bottom small volume plate were purchased from Thermo Fisher Scientific (Waltham, MA). Phospho-STAT5 (Tyr694) HTRF kit was purchased from Perkin Elmer (Waltham, MA).
SET-2 cells were cultured in RPMI media with 20% FBS at 37° C. in humidified incubator supplied with 5% CO2. On the day of assay, the cells were centrifuged to remove the culture media and resuspended with prewarmed RPMI with 10% FBS. Testing compounds were prepared by serial dilution in DMSO and 50 nL/well test compounds were transferred to the 384 white low volume cell culture plate (Greiner Bio-one) by ECHO liquid handler (Labcyte). The cells were then dispensed with Multidrop (Thermo Fisher, Waltham, MA) at 10 μL/well (7×10^6 cells/mL) with 0.5% DMSO in the final assay. After the treated cells were incubated for 2 hours at 37° C./5% CO2 incubator, 4 μL/well supplemented lysis buffer (100× blocking buffer diluted 25 fold in 4× lysis buffer, Perkin Elmer) were added and incubated at room temperature for 90 min on orbital shaker at 600 rpm. Phospho-STAT5 Cryptate antibody and Phospho-STAT5 d2 antibody (1:1 vol/vol) were premixed and diluted 20 fold with in the detection buffer (Perkin Elmer). 4 μL of the premixed antibody solution were added to each well followed with 24 hours incubation at room temperature on orbital shaker at 600 rpm. The product activity was determined by measuring the fluorescence at 620 nm and 665 nm on Pherastar microplate reader (BMG Labtech). A ratio is calculated (665/620) for each well. Wells with DMSO only served as the positive controls and wells containing high concentration of control compound were used as negative controls. IC50 determination was performed by fitting the curve of percent control activity versus the log of the compound concentration using the GraphPad Prism 7.0 software.

TRKA [3] = assay: TRKA enzymatic assay; assay type: biochemical
Method: (§1) Example I. TRKA Enzymatic Assay
(§2) The kinase assays were carried out at 24° C. temperature in assay buffer (HEPES 50 mM, pH 7.0, NaN3 0.02%, BSA 0.01%, Orthovanadate 0.1 mM, DTT 1 mM, MgCl2 10 mM) in a final volume of 10 μL. Testing compounds were prepared by serial dilution in DMSO and transferred to the plate wells by ECHO liquid handler (Labcyte) with 0.5% DMSO in the final assay. […]. Reactions were initiated by the addition of 5 μL ATP in assay buffer. The final 10 μL kinase reaction consists of 0.58 nM TRKA, 1 mM ATP, 500 nM TK Substrate-biotin and SEB reagent 62.5 nM in assay buffer. […] After 60 minutes incubation at room temperature, the product activity was determined by measuring the fluorescence at 620 nm and 665 nm on Pherastar microplate reader (BMG Labtech). A ratio is calculated (665/620 nm) for each well. Wells with DMSO only were served as the positive controls and wells containing no ATP were used as negative controls. IC50 determination was performed by fitting the curve of percent control activity versus the log of the compound concentration using the Gene data.

TRKA [4] = target: TRKA (Homo sapiens, UniProt P04629); assay: TRKA enzymatic assay; assay type: biochemical; details: 1 mM ATP
Chain of TRKA (Homo sapiens, UniProt P04629) (P04629 33-796, species assumed): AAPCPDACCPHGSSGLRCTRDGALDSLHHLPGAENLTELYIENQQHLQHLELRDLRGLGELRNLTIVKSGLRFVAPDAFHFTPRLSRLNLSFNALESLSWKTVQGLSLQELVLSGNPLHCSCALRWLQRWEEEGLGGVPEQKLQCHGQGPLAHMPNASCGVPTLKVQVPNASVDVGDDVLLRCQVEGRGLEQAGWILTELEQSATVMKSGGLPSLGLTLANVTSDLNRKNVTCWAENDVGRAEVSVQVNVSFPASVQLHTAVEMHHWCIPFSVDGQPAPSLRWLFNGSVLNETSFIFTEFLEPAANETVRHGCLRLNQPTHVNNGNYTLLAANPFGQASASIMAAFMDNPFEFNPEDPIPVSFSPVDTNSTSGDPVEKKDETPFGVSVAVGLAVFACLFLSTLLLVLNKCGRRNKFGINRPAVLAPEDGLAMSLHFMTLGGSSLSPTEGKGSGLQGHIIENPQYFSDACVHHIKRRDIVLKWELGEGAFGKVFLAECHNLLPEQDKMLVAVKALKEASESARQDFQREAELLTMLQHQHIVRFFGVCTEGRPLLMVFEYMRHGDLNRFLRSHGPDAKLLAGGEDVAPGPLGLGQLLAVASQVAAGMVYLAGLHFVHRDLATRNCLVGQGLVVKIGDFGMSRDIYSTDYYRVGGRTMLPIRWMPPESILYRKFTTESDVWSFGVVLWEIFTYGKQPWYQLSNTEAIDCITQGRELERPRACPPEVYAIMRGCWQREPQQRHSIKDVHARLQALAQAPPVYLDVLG
Method: as §1, §2

FLT3 = FLT3 enzymatic assay; assay type: biochemical
Method: Example C. FLT3 Enzymatic Assay
(§3) The kinase assays were carried out at room temperature in assay buffer (HEPES 50 mM, pH 7.0, NaN3 0.02%, BSA 0.01%, Orthovanadate 0.1 mM, DTT 1 mM, MgCl2 10 mM) in a final volume of 10 μL. Testing compounds were prepared by serial dilution in DMSO and transferred to the plate wells by ECHO liquid handler (Labcyte) with 0.5% DMSO in the final assay. […]. Reactions were initiated by the addition of 5 μL ATP in assay buffer. The final 10 μL kinase reaction consists of 0.011 nM FLT3, 1 mM ATP, 500 nM TK Substrate-biotin and SEB reagent 62.5 nM in assay buffer. […] The plates were then sealed and centrifuged at 1800 rpm for 2 minutes. After 60 minutes incubation at room temperature, the product activity was determined by measuring the fluorescence at 620 nm and 665 nm on Pherastar microplate reader (BMG Labtech). A ratio is calculated (665/620 nm) for each well. Wells with DMSO only were served as the positive controls and wells containing no ATP were used as negative controls. IC50 determination was performed by fitting the curve of percent control activity versus the log of the compound concentration using the GraphPad Prism 7.0 software.

KIT = KIT enzymatic assay; assay type: biochemical
Method: Example D. KIT Enzymatic Assay
as §3, with “0.12” for “0.011”, “KIT,” for “FLT3,”

Row | SMILES | h-IntCL [1] | IC50 [2] [nM] | Selectivity TRKA/JH2 V617F (TRKA [3]) | IC50 (TRKA [4]) [nM] | Selectivity FLT3/JH2 V617F (FLT3) | Selectivity KIT/JH2 V617F (KIT)
1 | COc1ccc(-c2c(-c3cnn(Cc4ccncc4)c3)[nH]c3ncc4c(c23)n(C2CCCC2)c(=O)n4C)cc1 [Comparative Example D, reference compound] | ‡ ‡ ‡ (h-IntCL of >1 L/h/kg) | ≤ 300 |  |  |  | 
2 | Cn1cc(-c2[nH]c3ncc4c(c3c2-c2ccc3c(cnn3C)c2)n([C@H]2CC[C@@H](CC#N)CC2)c(=O)n4C)cn1 [C, reference compound] | ‡ ‡ ‡ (h-IntCL of >1 L/h/kg) | ≤ 300 | * (selectivity of ≤500-fold) | < 25 | * (selectivity of ≤500-fold) | * (selectivity of ≤500-fold)
